Experimental data taken from ChEMBL document CHEMBL3817764, “Pyrimidine-based antimalarials: design strategies and antiplasmodial effects” (Medchemcomm, 2016).

What was measured:
[1] = tested on: Plasmodium falciparum; experiment: Antimalarial activity against chloroquine-sensitive Plasmodium falciparum D6 assessed as plasmodial LDH activity; type: functional, organism-based
[2] = tested on: Plasmodium falciparum; experiment: Antimalarial activity against chloroquine-resistant Plasmodium falciparum W2 assessed as plasmodial LDH activity; type: functional, organism-based

| Structure (SMILES) | IC50 [1] [nM] | IC50 [2] [nM] |
| --- | --- | --- |
| Cc1cc(NCCNc2ccnc3cc(Cl)ccc23)nc(NCCO)n1 | 50 | 50 |
| CN1CCN(c2nccc(NCCCNc3ccnc4cc(Cl)ccc34)n2)CC1 | 50 | 50 |
| Clc1ccc(Nc2nccc(N3CCN(c4ccnc5cc(Cl)ccc45)CC3)n2)cc1 | 130 | 130 |
| Clc1ccc2c(NCCNc3cc(Cl)nc(N4CCCCC4)n3)ccnc2c1 | 50 | 50 |
| CN1CCN(c2nccc(NCCNc3ccnc4cc(Cl)ccc34)n2)CC1 | 50 | 50 |
| Cc1cc(N2CCN(c3ccnc4cc(Cl)ccc34)CC2)nc(Cl)n1 | 130 | 130 |
| OCCCNc1nccc(N2CCN(c3ccnc4cc(Cl)ccc34)CC2)n1 | 130 | 130 |
| Cc1cc(NCCCNc2ccnc3cc(Cl)ccc23)nc(NCCCCCO)n1 | 50 | 50 |
| Clc1ccc2c(NCCNc3cc(Cl)nc(Cl)n3)ccnc2c1 | 50 | 50 |
| Cc1cc(NCCCNc2ccnc3cc(Cl)ccc23)nc(NCCO)n1 | 50 | 50 |
| OCCNc1nccc(N2CCN(c3ccnc4cc(Cl)ccc34)CC2)n1 | 130 | 130 |
| Clc1ccc2c(NCCCNc3ccnc(N4CCOCC4)n3)ccnc2c1 | 50 | 50 |
| Cc1cc(N2CCN(c3ccnc4cc(Cl)ccc34)CC2)nc(N2CCCC2)n1 | 130 | 130 |
| OCCNc1nccc(NCCNc2ccnc3cc(Cl)ccc23)n1 | 50 | 50 |
| Cc1cc(N2CCN(c3ccnc4cc(Cl)ccc34)CC2)nc(NCCCO)n1 | 130 | 130 |
| Cc1cc(NCCCCNc2ccnc3cc(Cl)ccc23)nc(NCCCCCO)n1 | 50 | 50 |
| OCCCCCNc1nccc(NCCNc2ccnc3cc(Cl)ccc23)n1 | 50 | 50 |
| Cc1cc(NCCCCNc2ccnc3cc(Cl)ccc23)nc(NCCCCCCO)n1 | 50 | 50 |

| Structure (SMILES) | IC50 [1] [nM] | IC50 [2] [nM] |
| --- | --- | --- |
| Cc1cc(N2CCN(c3ccnc4cc(Cl)ccc34)CC2)nc(NC2CCCCC2)n1 | 130 | 130 |
| OCCCCNc1nccc(NCCNc2ccnc3cc(Cl)ccc23)n1 | 50 | 50 |
| CCN1CCN(c2nccc(NCCNc3ccnc4cc(Cl)ccc34)n2)CC1 | 50 | 50 |
| Cc1cc(NCCNc2ccnc3cc(Cl)ccc23)nc(NCCCCCO)n1 | 50 | 50 |
| COc1ccc(Nc2nc(C)cc(N3CCN(c4ccnc5cc(Cl)ccc45)CC3)n2)cc1 | 130 | 130 |
| COc1cc(Nc2nccc(N3CCN(c4ccnc5cc(Cl)ccc45)CC3)n2)cc(OC)c1 | 130 | 130 |
| Cc1cc(N2CCN(c3ccnc4cc(Cl)ccc34)CC2)nc(Nc2ccc(F)cc2)n1 | 130 | 130 |
| Clc1ccc2c(NCCCNc3cc(Cl)nc(N4CCCCC4)n3)ccnc2c1 | 50 | 50 |
| Clc1ccc2c(N3CCN(c4ccnc(Nc5ccccc5)n4)CC3)ccnc2c1 | 130 | 130 |
| CCN1CCN(c2nc(Cl)cc(NCCCNc3ccnc4cc(Cl)ccc34)n2)CC1 | 50 | 50 |
| OCCCNc1nccc(NCCNc2ccnc3cc(Cl)ccc23)n1 | 50 | 50 |
| Cc1cc(NCCNc2ccnc3cc(Cl)ccc23)nc(NCCCCCCO)n1 | 50 | 50 |
| CCN1CCN(c2nc(Cl)cc(NCCNc3ccnc4cc(Cl)ccc34)n2)CC1 | 50 | 50 |
| CN1CCN(c2nc(Cl)cc(NCCNc3ccnc4cc(Cl)ccc34)n2)CC1 | 50 | 50 |
| OCCNc1nccc(NCCCCNc2ccnc3cc(Cl)ccc23)n1 | 50 | 50 |
| CN1CCN(c2nc(Cl)cc(NCCCNc3ccnc4cc(Cl)ccc34)n2)CC1 | 50 | 50 |
| Clc1ccc2c(NCCCNc3ccnc(N4CCCCC4)n3)ccnc2c1 | 50 | 50 |
